# Measured values: patent US8551999B2, “Heterocyclic compound and pharmaceutical composition thereof” (Otsuka Pharmaceutical Co., Ltd., priority 2007, dated 2013)
row,SMILES,melting point
1,"Br.Cn1c(C(=O)N2CCN(Cc3ccc4c(c3)OCO4)CC2)cc2cc(Oc3ccc(NC(=O)c4ccc(Cl)c(Cl)c4)cn3)ccc21 [Example 7, N-{6-[2-(4-Benzo[1,3]dioxol-5-ylmethylpiperazine-1-carbonyl)-1-methyl-1H-indol-5-yloxy]pyridin-3-yl}-3,4-dichlorobenzamide hydrobromide]",264 to 269 °C
2,"Br.CCn1c(C(=O)N2CCN(Cc3ccc4c(c3)OCO4)CC2)cc2cc(Oc3ccc(N(C)C(=O)c4ccc(C(F)(F)F)cc4)cn3)ccc21 [Example 344, N-{6-[2-(4-Benzo[1,3]dioxol-5-ylmethylpiperazine-1-carbonyl)-1-ethyl-1H-indol-5-yloxy]pyridin-3-yl}-N-methyl-4-trifluoromethyl-benzamide hydrobromide]",179 to 183 °C
3,"COc1ccc(CN2CCN(C(=O)c3cc4c(C)c(Oc5ccc(NC(=O)c6ccc(C(F)(F)F)cc6)cn5)ccc4n3C)CC2)cc1 [Example 235, N-(6-{2-[4-(4-Methoxybenzyl)piperazine-1-carbonyl]-1,4-dimethyl-1H-indol-5-yloxy}pyridin-3-yl)-4-trifluoromethylbenzamide]",219 to 221 °C
4,CN(C(=O)c1ccc(C(F)(F)F)cc1F)c1ccc(Oc2ccc3cc(C(=O)N4CCN(Cc5ccc(OC(F)F)cc5)CC4)n(C)c3c2)nc1.Cl,228.7 to 230.4 °C
5,Cl.Cn1c(C(=O)N2CCN(Cc3ccc(OCC(F)(F)F)cc3)CC2)cc2ccc(Oc3ccc(NC(=O)c4ccc(C(F)(F)F)c(F)c4)cn3)cc21,259 to 263.2 °C
6,"Br.Br.CN(C(=O)c1ccc(C(F)(F)F)cc1)c1ccc(Oc2ccc3c(c2)cc(C(=O)N2CCN(Cc4ccc(OCC(F)(F)F)cc4)CC2)n3C)nc1 [Example 432, N-Methyl-N-[6-(1-methyl-2-{4-[4-(2,2,2-trifluoroethoxy)benzyl]-piperazine-1-carbonyl}-1H-indol-5-yloxy)pyridin-3-yl]-4-tri-fluoromethylbenzamide dihydrobromide]",211 to 212 °C
7,"Cn1c(C(=O)N2CCN(C(=O)c3ccccn3)CC2)cc2cc(Oc3ccc(NC(=O)c4ccc(C(F)(F)F)cc4)cn3)ccc21 [Example 239, N-(6-{1-Methyl-2-[4-(pyridine-2-carbonyl)piperazine-1-carbonyl]-1H-indol-5-yloxy}pyridin-3-yl)-4-trifluoromethylbenzamide]",162 to 164 °C
8,"C[C@H]1CN(Cc2ccccn2)CCN1C(=O)c1cc2cc(Oc3ccc(NC(=O)c4ccc(C(F)(F)F)cc4)cn3)ccc2n1C.O=C(O)C(=O)O.O=C(O)C(=O)O [Example 397, N-{6-[1-Methyl-2-((S)-2-methyl-4-pyridin-2-ylmethylpiperazine-1-carbonyl)-1H-indol-5-yloxy]pyridin-3-yl}-4-trifluoromethyl-benzamide dioxalate]",126 to 127 °C
9,"Br.Cc1ccc(S(=O)(=O)N(C)c2ccc(Oc3ccc4cc(C(=O)N5CCN(Cc6ccc(OCCC(C)C)cc6)CC5)n(C)c4c3)nc2)cc1 [Example 533, 4,N-Dimethyl-N-[6-(1-methyl-2-{4-[4-(3-methylbutoxy)benzyl]-piperazine-1-carbonyl}-1H-indol-6-yloxy)pyridin-3-yl]benzene-sulfonamide hydrobromide]",236.5 to 238.3 °C (dec.)
10,"Br.Cn1c(C(=O)N2CCN(Cc3ccc(OCC(F)F)cc3)CC2)cc2cc(Oc3ccc(NC(=O)c4ccc(Cl)c(Cl)c4)cn3)ccc21 [Example 407, 3,4-Dichloro-N-[6-(2-{4-[4-(2,2-difluoroethoxy)benzyl]piperazine-1-carbonyl}-1-methyl-1H-indol-5-yloxy)pyridin-3-yl]benzamide hydrobromide]",241 to 245 °C
11,"Cn1c(C(=O)N2CCN(C3CCOCC3)CC2)cc2cc(Oc3ccc(NS(=O)(=O)c4ccc(Cl)c(Cl)c4)cn3)ccc21 [Example 331, 3,4-Dichloro-N-(6-{1-methyl-2-[4-(tetrahydropyran-4-yl)-piperazine-1-carbonyl]-1H-indol-5-yloxy}pyridin-3-yl)-benzenesulfonamide]",208 to 210 °C
12,"COc1ccc(CNC2CCN(C(=O)c3cc4cc(Oc5ccc(NC(=O)c6ccc(C(F)(F)F)cc6)cn5)ccc4n3C)CC2)cc1 [Example 233, N-[6-(2-{4-[(4-Methoxyphenyl)methylamino]piperidine-1-carbonyl}-1-methyl-1H-indol-5-yloxy)pyridin-3-yl]-4-trifluoromethyl-benzamide]",139 to 142 °C
13,"COc1ccc(CN2CCN(C(=O)c3cc4cc(Oc5ccc(NC(=O)c6ccc(C(F)(F)F)cc6)cn5)ccc4n3C)[C@@H](C)C2)cc1.O=C(O)C(=O)O [Example 396, N-(6-{2-[(S)-4-(4-Methoxybenzyl)-2-methylpiperazine-1-carbonyl]-1-methyl-1H-indol-5-yloxy}pyridin-3-yl)-4-trifluoromethyl-benzamide oxalate]",159 to 160 °C
14,"Br.CN(C(=O)c1ccc(C(F)(F)F)cc1)c1ccc(Oc2ccc3cc(C(=O)N4CCN(Cc5ccc6c(c5)OC(F)(F)O6)CC4)n(C)c3c2)nc1 [Example 440, N-(6-{2-[4-(2,2-Difluorobenzo[1,3]dioxol-5-ylmethyl)piperazine-1-carbonyl]-1-methyl-1H-indol-6-yloxy}pyridin-3-yl)-N-methyl-4-tri-fluoromethylbenzamide hydrobromide]",243.3 to 245.1 °C
15,"CC(C)Oc1ccc(CN2CCN(C(=O)c3cc4ccc(Oc5ncc(N(C)S(=O)(=O)c6ccc(C(F)(F)F)cc6)cn5)cc4n3C)CC2)cc1 [Example 42, N-(2-{2-[4-(4-Isopropoxybenzyl)piperazine-1-carbonyl]-1-methyl-1H-indol-6-yloxy}pyrimidin-5-yl)-N-methyl-4-trifluoromethyl-benzenesulfonamide]",186.6 to 187.3 °C
16,CN(C(=O)Nc1ccc(Cl)c(Cl)c1)c1ccc(Oc2ccc3c(c2)cc(C(=O)N2CCN(Cc4ccc5c(c4)OCO5)CC2)n3C)nc1.Cl,240 to 243 °C
17,CCN(c1ccc(Oc2ccc3cc(C(=O)N4CCN(Cc5ccc(OCC(F)(F)F)cc5)CC4)n(C)c3c2)nc1)S(=O)(=O)c1ccc(Cl)c(Cl)c1.Cl,226.9 to 227.2 °C
18,"CN(C(=O)c1ccc(C(F)(F)F)cc1O)c1ccc(Oc2ccc3c(c2)cc(C(=O)N2CCN(Cc4ccc(OC(F)F)cc4)CC2)n3C)nc1.O=C(O)C(=O)O [Example 594, N-(6-{2-[4-(4-Difluoromethoxybenzyl)piperazine-1-carbonyl]-1-methyl-1H-indol-5-yloxy}pyridin-3-yl)-2-hydroxy-N-methyl-4-tri-fluoromethylbenzamide oxalate]",155 to 160 °C
19,Cl.Cn1c(C(=O)N2CCN(Cc3ccc(OC(F)F)cc3)CC2)cc2ccc(Oc3ccc(NC(=O)c4ccc(OC(F)(F)F)cc4)cn3)cc21,256.2 to 256.5 °C
20,"Cn1c(C(=O)N2CCN(C3CCOCC3)CC2)cc2cc(Oc3ccc(NS(=O)(=O)c4ccc(C(F)(F)F)cc4)cn3)ccc21 [Example 332, N-(6-{1-Methyl-2-[4-(tetrahydropyran-4-yl)piperazine-1-carbonyl]-1H-indol-5-yloxy}pyridin-3-yl)-4-trifluoromethylbenzene-sulfonamide]",174 to 178 °C
21,"CCCOc1ccc(CN2CCN(C(=O)c3cc4ccc(Oc5ccc(N(C)S(=O)(=O)c6ccc(C)cc6)cn5)cc4n3C)CC2)cc1 [Example 32, 4,N-Dimethyl-N-(6-{1-methyl-2-[4-(4-propoxybenzyl)piperazine-1-carbonyl]-1H-indol-6-yloxy}pyridin-3-yl)benzenesulfonamide]",135.9 to 136.8 °C
